Measurements from PMC9266004, “Potential Common Mechanisms of Cytotoxicity Induced by Amide Herbicides via TRPA1 Channel Activation” (International Journal of Environmental Research and Public …, 2022).

Legend:
[1] = system: calcium influx in TRPA1-KO A549 cells; experiment: Cellular calcium imaging (Fluo-4) in TRPA1-KO A549 cells; format: cell-based, human; conditions: AHs 150-1200 μM
Method: (§1) The hTRPA1 gene sequence (Gene ID: 8989) was obtained from the National Center for Biotechnology Information (NCBI) website (https://www.ncbi.nlm.nih.gov/gene/8989 accessed on 26 May 2022). Three gRNA sequences, namely, T1: 5′-[…]-[…], T16: 5′-[…]-3′, and T20: 5′-[…]-3′, were designed using the CRISPR online design tool (http://crispr.mit.edu/ accessed on 26 May 2022). Transfection of cells with gRNA-Cas9 was validated in test cells. Cell pool examination was performed using Sanger sequencing. Sequencing and tracer analysis were performed using the online tool TIDE (https://tide-calculator.nki.nl/ accessed on 26 May 2022) to investigate the cleavage efficiency of T1, T16, and T20. Cells from the cell pool were diluted in 96-well plates. Clones were observed under a microscope and wells containing single cell clones were labeled. Single cell clones were transferred to 24-well plates for expansion. Validation of knockout (KO) clones was performed via sequencing to confirm insertion and deletion on the genomes of KO clone candidates. Furthermore, mycoplasmas were detected for cloned cells with high KO using the Mycoplasma PCR Detection Kit.
(§2) Wild-type (WT) and TRPA1-KO A549 cells were cultured in McCoy’s 5A Media and F-12K Nutrient Mixture containing 10% fetal bovine serum, respectively. WT/TRPA1-KO A549 cells (5 × 10^4 cells/mL) were seeded in 96-well (100 μL/well) and 6-well (2 mL/well) plates and incubated at 37 °C with 5% CO2 in a humidified incubator for 24 h. WT/TRPA1-KO A549 cells were treated with AHs gradient concentrations (0, 150, 300, 600, 1200 μM) prepared in methanol (1.2 M) for 24 h. Additionally, WT/TRPA1-KO A549 cells were pre-treated with TRPA1 special inhibitor HC-030031 (100 μM) for 0.5 h and then treated with AHs gradient concentrations for 24 h.
Working solution was prepared according to the instructions of the Fluo-4 Direct calcium assay kit and directly added to WT/TRPA1-KO A549 cells in 96-well plates, which were incubated for 0.5 h and kept away from light after removal from the incubator. Single channel fluorescein isothiocyanate (FITC) levels were measured using a confocal high-content imaging system (IXM-C S150069, Molecular Devices, San Jose, CA, USA).

zebrafish embryos = conditions: cited from earlier work
TRPA1-KO A549 cells = experiment: CCK-8 cell viability assay in TRPA1-KO A549 cells; format: cell-based, human; conditions: for IC50: Homo sapiens, TRPA1-KO A549 cells, 24 h treatment, CCK-8, read-out: IC50 values of AHs, TRPA1-KO A549 Cells; for viability of TRPA1-KO A549 cells compared with AHs-treated WT cells: KO of TRPA1, AHs 150, 300, 600 μM
Method: as §1, §2
To conduct the cell viability assay, the growth medium was removed from WT/TRPA1-KO A549 cells cultured in a 96-well plate. CCK-8 reagent was mixed with complete medium (1:9 volume ratio), and 100 µL of the CCK-8 reagent mixture was added to each well. The plate was incubated for 4 h and the absorbance was measured at 450 nm using a microplate reader (BNR05740; Molecular Devices, Sunnyvale, CA, USA). The average absorbance from each sextuplicate set of wells was calculated and the background control value was subtracted from each absorbance value. The percentage cell viability was determined using the following equation:cell viability (%) = [(As − Ab)/(Ac − Ab)] × 100% where As is the absorbance of the experimental well (containing medium, CCK-8 reagent, cells, and compound); Ac is the absorbance of the control well (containing medium, CCK-8 reagent, and cells); and Ab is the absorbance of the blank well (containing medium and CCK-8 reagent).

Row | SMILES | calcium influx with KO of TRPA1 compared with AHs-treated WT cells [1] | toxic effects (zebrafish embryos) | IC50 (TRPA1-KO A549 cells) [µM] | viability of TRPA1-KO A549 cells compared with AHs-treated WT cells (TRPA1-KO A549 cells)
1 | CCCOCCN(C(=O)CCl)c1c(CC)cccc1CC [Pretilachlor, pretilachlor] | significantly decreased calcium influx | endocrine disorder, cell apoptosis, and immunotoxicity | 3670 | significantly increased the viability
2 | CCC(=O)Nc1ccc(Cl)c(Cl)c1 [Propanil, propanil] | significantly decreased calcium influx |  | 2560 | significantly increased the viability
3 | CCc1cccc(C)c1N(C(=O)CCl)C(C)COC (stereo not shown) [Metolachlor, metolachlor] | significantly decreased calcium influx |  | 562 | significantly increased the viability
